Key:
CD11b = assay: Human whole blood CD11b up-regulation assay; type: cell-based; settings: Homo sapiens, 2 nM human C5a, CD15+ granulocytes, read-out: hCD11b IC50
Procedure, shortened: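 Heparinized human whole blood (used within 2 h) preincubated 10 min at room temperature with compound in 1% DMSO, then stimulated with 2 nM human C5a for 15 min. After anti-CD15/anti-CD11b staining on ice and RBC lysis, CD11b median fluorescence on 10,000 CD15+ granulocytes measured by flow cytometry.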

human C5aR = human C5aR (Homo sapiens (Human), UniProt P21730); assay: FLIPR assay: inhibition of C5a-mediated calcium mobilization; type: cell-based; settings: stable cell line over expressing human C5aR & Gα15, human C5a at EC50 (0.1-0.25 nM)
Procedure, shortened: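 Stable cell line overexpressing human C5aR with Gα15, measured on FLIPR Tetra. Cells loaded 1 h at 37° C with calcium 5 dye and 2.5 mM probenecid in HBSS/20 mM HEPES/0.1% BSA. Compounds preincubated 30 minutes at room temperature in 1% DMSO before C5a.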

Chain of human C5aR (P21730 whole entry): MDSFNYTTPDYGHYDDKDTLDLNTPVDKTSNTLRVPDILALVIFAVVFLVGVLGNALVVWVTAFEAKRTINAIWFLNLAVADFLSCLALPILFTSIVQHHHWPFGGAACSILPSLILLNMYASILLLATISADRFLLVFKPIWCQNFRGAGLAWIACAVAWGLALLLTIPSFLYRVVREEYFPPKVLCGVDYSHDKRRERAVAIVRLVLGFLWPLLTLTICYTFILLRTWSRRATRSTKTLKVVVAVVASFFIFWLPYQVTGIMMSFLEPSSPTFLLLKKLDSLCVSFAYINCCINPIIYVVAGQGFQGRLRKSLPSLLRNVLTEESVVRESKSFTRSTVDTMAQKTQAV

Row | Structure (SMILES) | IC50 (CD11b) [nM] | IC50 (human C5aR) [nM]
1 | CCO[C@@H]1CCN(c2nc(-c3c(C)ccc4[nH]nc(C)c34)nc3c2CN(c2cc(C(C)C)ccc2C)CC3)[C@H](C)C1 [Example 21-AL, 2-(3,5-dimethyl-1H-indazol-4-yl)-4-((2R,4R)-4-ethoxy-2-methylpiperidin-1-yl)-6-(5-isopropyl-2-methylphenyl)-5,6,7,8-tetrahydropyrido[4,3-d]pyrimidine] | 19 | 1
2 | CO[C@@H]1CCN(c2nc(-c3c(C)cccc3C)nc3c2CN(c2cc(C4(C)COC4)ccc2C)CC3)[C@H](C)C1 [Example 21-K, 2-(2,6-dimethylphenyl)-4-((2R,4R)-4-methoxy-2-methylpiperidin-1-yl)-6-(2-methyl-5-(3-methyloxetan-3-yl)phenyl)-5,6,7,8-tetrahydropyrido[4,3-d]pyrimidine] | 11 | 2
3 | CO[C@@H]1CCN(c2nc(-c3c(C)cccc3C)nc3c2CN(c2cc(C(F)(F)F)ccc2C)CC3)CC1(C)C [Example 21-AB, (R)-2-(2,6-dimethylphenyl)-4-(4-methoxy-3,3-dimethylpiperidin-1-yl)-6-(2-methyl-5-(trifluoromethyl)phenyl)-5,6,7,8-tetrahydropyrido[4,3-d]pyrimidine] | 11 | 4
4 | CO[C@@H]1CCN(c2nc(-c3c(C)ccc4[nH]nc(C)c34)nc3c2CN(c2cc(C4(C)COC4)ccc2C)CC3)[C@H](C)C1 [Example 21-R, 2-(3,5-dimethyl-1H-indazol-4-yl)-4-((2R,4R)-4-methoxy-2-methylpiperidin-1-yl)-6-(2-methyl-5-(3-methyloxetan-3-yl)phenyl)-5,6,7,8-tetrahydropyrido[4,3-d]pyrimidine] | 15 | 1
5 | CO[C@@H]1CCN(c2nc(-c3c(C)ccc4[nH]nc(C)c34)nc3c2CN(c2cc(C(F)(F)F)ccc2C)CC3)[C@H](C)C1 [Example 21-AH, 2-(3,5-dimethyl-1H-indazol-4-yl)-4-((2R,4R)-4-methoxy-2-methylpiperidin-1-yl)-6-(2-methyl-5-(trifluoromethyl)phenyl)-5,6,7,8-tetrahydropyrido[4,3-d]pyrimidine] | 6 | 1
6 | CO[C@@H]1CCN(c2nc(-c3c(C(F)(F)F)cnc4[nH]ccc34)nc3c2CN(c2cc(C(C)C)ccc2C)CC3)[C@H](C)C1 [Example 22-C, 6-(5-Isopropyl-2-methylphenyl)-4-((2R,4R)-4-methoxy-2-methylpiperidin-1-yl)-2-(5-(trifluoromethyl)-1H-pyrrolo[2,3-b]pyridin-4-yl)-5,6,7,8-tetrahydropyrido[4,3-d]pyrimidine] | 17 | 2
7 | CO[C@@H]1CCN(c2nc(-c3c(C)cccc3C)nc3c2CN(c2cc(Cl)ccc2C)CC3)[C@H](C)C1 [Example 21-P, 6-(5-chloro-2-methylphenyl)-2-(2,6-dimethylphenyl)-4-((2R,4R)-4-methoxy-2-methylpiperidin-1-yl)-5,6,7,8-tetrahydropyrido[4,3-d]pyrimidine] | 26 | 7
8 | Cc1ccc2[nH]nc(C)c2c1-c1nc2c(c(N3CC[C@H]4OC[C@H]4C3)n1)CN(c1c(Cl)c(C3CC3)nn1C)CC2 (racemic) [Example 69-M, (cis)-3-(6-(4-chloro-3-cyclopropyl-1-methyl-1H-pyrazol-5-yl)-2-(3,5-dimethyl-1H-indazol-4-yl)-5,6,7,8-tetrahydropyrido[4,3-d]pyrimidin-4-yl)-7-oxa-3-azabicyclo[4.2.0]octane] | 45 | 8
9 | CO[C@@H]1CCN(c2nc(-c3c(C)ccc4[nH]nc(C)c34)nc3c2CN(c2cc(C(C)C)ccc2C)CC3)C[C@H]1C [Example 19-AF] | 6 | 1
10 | CO[C@H]1CCN(c2nc(-c3c(C)ccc4[nH]nc(Cl)c34)nc3c2CN(c2cc(C(C)C)ccc2C)CC3)CC1(C)C [Example 32-B, (S)-2-(3-Chloro-5-methyl-1H-indazol-4-yl)-6-(5-isopropyl-2-methylphenyl)-4-(4-methoxy-3,3-dimethylpiperidin-1-yl)-5,6,7,8-tetrahydropyrido[4,3-d]pyrimidine] | 24 | 2
11 | CO[C@@H]1CCN(c2nc(-c3c(C)cccc3C)nc3c2CN(c2cc(C4CC4)nn2C)CC3)[C@H](C)C1 [Example 23-D, 6-(3-cyclopropyl-1-methyl-1H-pyrazol-5-yl)-2-(2,6-dimethylphenyl)-4-((2R,4R)-4-methoxy-2-methylpiperidin-1-yl)-5,6,7,8-tetrahydropyrido[4,3-d]pyrimidine] | 18 | 8

More lines, now with the values ahead:

Row | IC50 (CD11b) [nM] | IC50 (human C5aR) [nM] | Structure (SMILES)
12 | 8 | 1 | CO[C@@H]1CCN(c2nc(-c3c(C)ccc4[nH]nc(C)c34)nc3c2CN(c2cc(C(C)C)ccc2C)CC3)CC1(C)C [Example 21-AI, (R)-2-(3,5-dimethyl-1H-indazol-4-yl)-6-(5-isopropyl-2-methylphenyl)-4-(4-methoxy-3,3-dimethylpiperidin-1-yl)-5,6,7,8-tetrahydropyrido[4,3-d]pyrimidine]
13 | 2250 | 90 | Cc1cc(N2CCc3nc(-c4c(C)cccc4C)nc(N4CCCC(C)(C)C4)c3C2)n(C)n1 [Example 16-O, 6-(1,3-dimethyl-1H-pyrazol-5-yl)-2-(2,6-dimethylphenyl)-4-(3,3-dimethylpiperidin-1-yl)-5,6,7,8-tetrahydropyrido[4,3-d]pyrimidine]
14 | 51 | 5 | CO[C@@H]1CCN(c2nc(-c3c(C)cccc3C)nc3c2CN(c2cc(C(F)(F)F)ccc2C)CC3)[C@H](C)C1 [Example 21-AK, 2-(2,6-dimethylphenyl)-4-((2R,4R)-4-methoxy-2-methylpiperidin-1-yl)-6-(2-methyl-5-(trifluoromethyl)phenyl)-5,6,7,8-tetrahydropyrido[4,3-d]pyrimidine]
15 | 16 | 2 | Cc1ccc(C(C)C)cc1N1CCc2nc(-c3c(C)ccc4[nH]nc(C)c34)nc(N3CC[C@@H](N(C)C)C3)c2C1 [Example 65-B, (R)-1-(2-(3,5-dimethyl-1H-indazol-4-yl)-6-(5-isopropyl-2-methylphenyl)-5,6,7,8-tetrahydropyrido[4,3-d]pyrimidin-4-yl)-N,N-dimethylpyrrolidin-3-amine]
16 | 1420 | 56 | [2H]C1([2H])c2c(C)cc(-c3cccc4[nH]cc(C)c34)nc2CCN1c1c(C)nn(CC)c1C [Example 47-B, 6-(1-Ethyl-3,5-dimethyl-1H-pyrazol-4-yl)-4-methyl-2-(3-methyl-1H-indol-4-yl)-5,6,7,8-tetrahydro(5,5-^2H2)-1,6-naphthyridine]
17 | 197 | 31 | CNCCOc1nc(-c2c(C)ccc3[nH]nc(C)c23)nc2c1CN(c1cc(C(C)C)ccc1C)CC2 [Example 63-G, 2-((2-(3,5-dimethyl-1H-indazol-4-yl)-6-(5-isopropyl-2-methylphenyl)-5,6,7,8-tetrahydropyrido[4,3-d]pyrimidin-4-yl)oxy)-N-methylethanamine]
18 | 670 | 7 | Cc1ccc(C(F)(F)F)cc1N1CCc2nc(-c3cccc4[nH]cc(C)c34)nc(N3CCN(CC(N)=O)[C@H](C)C3)c2C1 [Example 24-G, (R)-2-(2-methyl-4-(2-(3-methyl-1H-indol-4-yl)-6-(2-methyl-5-(trifluoromethyl)phenyl)-5,6,7,8-tetrahydropyrido[4,3-d]pyrimidin-4-yl)piperazin-1-yl)acetamide]

From patent US8846656B2, “Tetrahydropyrido-pyridine and tetrahydropyrido-pyrimidine compounds and use thereof as C5a receptor modulators” (Novartis AG, priority 2011, dated 2014)
